In test [1] the target is Platelet-derived growth factor receptor beta (Homo sapiens, UniProt P09619). The experiment in a line: Inhibitory activity against PDGFRbeta kinase.
For test [2], the system named is U-87 MG. The experiment in a line: Antiproliferative activity against human glioma tumor cell line U87MG. Type of test: functional, cell-based, U-87MG ATCC.
The test system of test [3] is T47D. Put plainly: Antiproliferative activity against human breast tumor cell line T47D. It counts as functional, cell-based.
Test [4] has as its system A-375. The experiment in a line: Antiproliferative activity against human melanoma tumor cell line A375. Type of test: functional, cell-based.
Test [5] concerns ASPC1. Put plainly: Antiproliferative activity against human pancreatic tumor cell line AsPC1. It counts as functional, cell-based.
Test [6] deals with LoVo. Put plainly: Antiproliferative activity against human colon tumor cell line LoVo. Type of test: functional, cell-based.
Test [7] has as its system LNCaP. Put plainly: Antiproliferative activity against human prostate tumor cell line LnCAP. It counts as functional, cell-based.
Test [8] concerns HUVEC. The experiment in a line: Antiproliferative activity against LSGS stimulated HUVEC. It counts as functional, cell-based. As to conditions: Homo sapiens.
In test [9] the test system is NCI-H460. The experiment in a line: Antiproliferative activity against human lung tumor cell line H460. It counts as functional, cell-based.
Test [10] deals with PC-3. The experiment in a line: Antiproliferative activity against human prostate tumor cell line PC3. Type of test: functional, cell-based.
For test [11], the target named is Platelet-derived growth factor receptor alpha (Homo sapiens, UniProt P16234). The experiment in a line: Inhibitory activity against PDGFRalpha.
The target of test [12] is Fibroblast growth factor receptor 1 (Homo sapiens, UniProt P11362). The experiment in a line: Inhibitory activity against bFGFR1.
Test [13] deals with Casein kinase II (Homo sapiens, UniProt P19784+P67870+P68400). The experiment in a line: Inhibitory activity against Casein Kinase 2. It counts as protein-complex assay.
For test [14], the target named is Mitogen-activated protein kinase 1 (Homo sapiens, UniProt P28482). Put plainly: Inhibitory activity against MAPK.
Test [15] addresses Cyclin-dependent kinase 1 (Homo sapiens, UniProt P06493). Put plainly: Inhibitory activity against CDK1.
Test [16] deals with Tyrosine-protein kinase Fyn (Homo sapiens, UniProt P06241). The experiment in a line: Inhibitory activity against FYN.
Test [17] can be described thus: Inhibitory activity against Calmodulin Kinase.
Test [18] deals with Insulin receptor (Homo sapiens, UniProt P06213). Put plainly: Inhibitory activity against IRK.
In test [19] the target is Focal adhesion kinase 1 (Homo sapiens, UniProt Q05397). Put plainly: Inhibitory activity against FAK.
Test [20] has as its target Cyclin-dependent kinase 7 (Homo sapiens, UniProt P50613). Put plainly: Inhibitory activity against CDK7.
Test [21] addresses Proto-oncogene tyrosine-protein kinase Src (Homo sapiens, UniProt P12931). Put plainly: Inhibitory activity against c-SRC.
Test [22] has as its target Receptor tyrosine-protein kinase erbB-2 (Homo sapiens, UniProt P04626). The experiment in a line: Inhibitory activity against HER2.
Test [23] has as its target Cyclin-dependent kinase 2 (Homo sapiens, UniProt P24941). The experiment in a line: Inhibitory activity against CDK2.
For test [24], the target named is Cyclin-dependent kinase 4 (Homo sapiens, UniProt P11802). The experiment in a line: Inhibitory activity against CDK4.
The target in test [25] is Vascular endothelial growth factor receptor (Homo sapiens, UniProt P17948+P35916+P35968). Put plainly: Inhibitory activity against VEGFR. It counts as protein assay.
Test [26] addresses cAMP-dependent protein kinase (PKA) (Homo sapiens, UniProt P22694+P17612+P22612). Put plainly: Inhibitory activity against PKA. It counts as protein assay.
In test [27] the target is Glycogen synthase kinase-3 (Homo sapiens, UniProt P49840+P49841). The experiment in a line: Inhibitory activity against GSK3. It counts as protein assay.

This note sets out measurements from ChEMBL document CHEMBL1140423, “(6,7-Dimethoxy-2,4-dihydroindeno[1,2-c]pyrazol-3-yl)phenylamines: platelet-derived growth factor receptor tyrosine kinase inhibitors with broad antiproliferative activity against tumor cells” (J Med Chem, 2005).

Chain of Platelet-derived growth factor receptor beta (P09619 whole entry): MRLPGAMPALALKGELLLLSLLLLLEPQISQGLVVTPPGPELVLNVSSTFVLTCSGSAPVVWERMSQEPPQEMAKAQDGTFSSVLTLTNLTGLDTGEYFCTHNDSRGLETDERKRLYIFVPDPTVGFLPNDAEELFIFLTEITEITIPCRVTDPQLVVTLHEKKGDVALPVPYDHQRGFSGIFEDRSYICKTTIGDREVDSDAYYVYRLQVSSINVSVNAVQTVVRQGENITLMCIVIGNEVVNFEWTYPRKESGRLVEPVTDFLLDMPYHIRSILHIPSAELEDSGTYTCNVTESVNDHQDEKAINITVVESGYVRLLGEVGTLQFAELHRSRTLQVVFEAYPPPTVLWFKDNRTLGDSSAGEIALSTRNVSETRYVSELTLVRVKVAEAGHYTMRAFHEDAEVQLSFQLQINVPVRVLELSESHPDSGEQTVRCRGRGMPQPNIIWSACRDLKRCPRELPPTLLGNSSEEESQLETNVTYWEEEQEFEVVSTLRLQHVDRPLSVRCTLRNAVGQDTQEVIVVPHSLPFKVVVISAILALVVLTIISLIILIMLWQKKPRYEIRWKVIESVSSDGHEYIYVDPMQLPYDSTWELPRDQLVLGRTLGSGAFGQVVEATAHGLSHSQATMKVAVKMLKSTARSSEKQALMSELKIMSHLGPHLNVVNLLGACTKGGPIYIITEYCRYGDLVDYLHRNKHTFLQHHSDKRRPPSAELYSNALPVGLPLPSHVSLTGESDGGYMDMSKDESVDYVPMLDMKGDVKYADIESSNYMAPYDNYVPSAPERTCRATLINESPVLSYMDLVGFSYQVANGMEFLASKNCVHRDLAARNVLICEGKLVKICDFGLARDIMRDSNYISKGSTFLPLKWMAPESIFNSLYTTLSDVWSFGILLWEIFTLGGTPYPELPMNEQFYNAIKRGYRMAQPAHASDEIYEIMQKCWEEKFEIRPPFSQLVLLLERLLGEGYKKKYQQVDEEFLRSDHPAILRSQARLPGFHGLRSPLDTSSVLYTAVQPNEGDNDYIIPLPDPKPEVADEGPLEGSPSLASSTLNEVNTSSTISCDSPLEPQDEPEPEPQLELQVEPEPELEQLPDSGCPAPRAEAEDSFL
Chain of Insulin receptor (P06213 28-758 limits assumed): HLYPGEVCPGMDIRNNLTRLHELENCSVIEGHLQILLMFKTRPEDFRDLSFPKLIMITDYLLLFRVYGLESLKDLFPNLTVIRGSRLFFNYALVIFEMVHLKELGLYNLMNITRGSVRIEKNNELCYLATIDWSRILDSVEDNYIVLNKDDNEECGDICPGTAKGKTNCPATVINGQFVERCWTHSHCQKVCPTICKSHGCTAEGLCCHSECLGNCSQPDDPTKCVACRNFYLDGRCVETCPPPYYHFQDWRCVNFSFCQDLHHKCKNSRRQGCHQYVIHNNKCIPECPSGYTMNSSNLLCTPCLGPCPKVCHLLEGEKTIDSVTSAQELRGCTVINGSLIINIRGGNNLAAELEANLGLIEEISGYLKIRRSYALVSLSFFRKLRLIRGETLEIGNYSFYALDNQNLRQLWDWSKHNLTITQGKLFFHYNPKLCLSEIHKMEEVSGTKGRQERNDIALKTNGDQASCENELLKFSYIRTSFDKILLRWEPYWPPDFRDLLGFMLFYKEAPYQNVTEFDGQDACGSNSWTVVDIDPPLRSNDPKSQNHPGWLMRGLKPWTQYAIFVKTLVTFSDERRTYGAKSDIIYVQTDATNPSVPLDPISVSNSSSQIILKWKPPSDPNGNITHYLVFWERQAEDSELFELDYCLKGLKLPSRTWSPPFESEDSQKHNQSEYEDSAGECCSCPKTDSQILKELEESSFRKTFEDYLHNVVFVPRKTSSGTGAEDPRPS
Chain of Insulin receptor (P06213 763-1382 limits assumed): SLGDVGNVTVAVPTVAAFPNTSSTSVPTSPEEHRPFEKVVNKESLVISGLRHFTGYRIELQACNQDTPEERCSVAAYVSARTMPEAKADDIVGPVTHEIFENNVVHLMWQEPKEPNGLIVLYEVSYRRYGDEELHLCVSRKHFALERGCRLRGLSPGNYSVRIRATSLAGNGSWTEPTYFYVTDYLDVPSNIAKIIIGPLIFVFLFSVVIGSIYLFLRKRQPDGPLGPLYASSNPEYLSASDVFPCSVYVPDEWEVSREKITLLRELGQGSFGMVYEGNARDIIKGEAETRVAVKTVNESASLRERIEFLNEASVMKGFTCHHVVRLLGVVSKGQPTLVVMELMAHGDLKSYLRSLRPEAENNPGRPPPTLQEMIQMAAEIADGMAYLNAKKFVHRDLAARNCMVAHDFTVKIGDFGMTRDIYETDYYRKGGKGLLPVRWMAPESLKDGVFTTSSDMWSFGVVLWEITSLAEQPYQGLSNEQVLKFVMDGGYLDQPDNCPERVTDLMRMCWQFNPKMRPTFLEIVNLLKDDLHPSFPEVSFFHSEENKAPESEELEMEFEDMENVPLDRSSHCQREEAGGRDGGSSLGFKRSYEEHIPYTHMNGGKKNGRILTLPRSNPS
Chain of Platelet-derived growth factor receptor alpha (P16234 whole entry): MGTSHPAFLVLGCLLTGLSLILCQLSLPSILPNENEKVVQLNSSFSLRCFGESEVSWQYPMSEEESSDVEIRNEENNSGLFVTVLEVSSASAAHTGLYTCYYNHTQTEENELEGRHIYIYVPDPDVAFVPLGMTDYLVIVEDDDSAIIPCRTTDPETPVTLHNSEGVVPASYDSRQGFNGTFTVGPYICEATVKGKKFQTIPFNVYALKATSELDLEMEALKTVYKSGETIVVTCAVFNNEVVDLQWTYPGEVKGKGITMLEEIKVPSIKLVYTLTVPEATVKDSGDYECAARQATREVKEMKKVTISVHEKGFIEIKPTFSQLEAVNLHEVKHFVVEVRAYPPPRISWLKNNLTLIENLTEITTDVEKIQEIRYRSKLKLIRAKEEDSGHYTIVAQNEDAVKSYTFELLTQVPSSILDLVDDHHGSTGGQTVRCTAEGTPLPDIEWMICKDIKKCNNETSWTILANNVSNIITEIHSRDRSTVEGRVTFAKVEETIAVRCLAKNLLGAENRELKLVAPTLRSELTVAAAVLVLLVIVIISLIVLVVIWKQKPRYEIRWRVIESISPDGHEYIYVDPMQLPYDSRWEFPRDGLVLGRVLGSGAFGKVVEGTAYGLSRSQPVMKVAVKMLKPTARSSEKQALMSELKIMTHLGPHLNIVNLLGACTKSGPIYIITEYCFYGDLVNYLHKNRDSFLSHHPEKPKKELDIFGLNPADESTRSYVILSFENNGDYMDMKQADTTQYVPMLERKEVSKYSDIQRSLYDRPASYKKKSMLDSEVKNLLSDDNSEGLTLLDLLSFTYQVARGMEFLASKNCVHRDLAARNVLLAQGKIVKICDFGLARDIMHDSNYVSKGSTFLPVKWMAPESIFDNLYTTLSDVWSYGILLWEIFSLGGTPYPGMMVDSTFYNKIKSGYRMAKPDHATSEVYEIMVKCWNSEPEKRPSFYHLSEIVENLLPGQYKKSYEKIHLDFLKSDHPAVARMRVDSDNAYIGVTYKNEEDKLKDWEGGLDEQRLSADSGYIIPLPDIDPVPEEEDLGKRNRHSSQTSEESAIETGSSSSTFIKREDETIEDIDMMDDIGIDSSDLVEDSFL
Chain of Cyclin-dependent kinase 1 (P06493 whole entry): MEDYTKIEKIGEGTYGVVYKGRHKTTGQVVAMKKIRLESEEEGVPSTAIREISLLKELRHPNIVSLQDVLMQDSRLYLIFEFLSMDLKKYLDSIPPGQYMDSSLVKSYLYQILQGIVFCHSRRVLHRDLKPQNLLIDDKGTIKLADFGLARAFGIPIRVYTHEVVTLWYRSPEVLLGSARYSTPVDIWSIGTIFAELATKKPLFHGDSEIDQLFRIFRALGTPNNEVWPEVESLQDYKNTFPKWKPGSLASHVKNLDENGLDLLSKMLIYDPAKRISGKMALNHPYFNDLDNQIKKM
Chain of Cyclin-dependent kinase 7 (P50613 whole entry): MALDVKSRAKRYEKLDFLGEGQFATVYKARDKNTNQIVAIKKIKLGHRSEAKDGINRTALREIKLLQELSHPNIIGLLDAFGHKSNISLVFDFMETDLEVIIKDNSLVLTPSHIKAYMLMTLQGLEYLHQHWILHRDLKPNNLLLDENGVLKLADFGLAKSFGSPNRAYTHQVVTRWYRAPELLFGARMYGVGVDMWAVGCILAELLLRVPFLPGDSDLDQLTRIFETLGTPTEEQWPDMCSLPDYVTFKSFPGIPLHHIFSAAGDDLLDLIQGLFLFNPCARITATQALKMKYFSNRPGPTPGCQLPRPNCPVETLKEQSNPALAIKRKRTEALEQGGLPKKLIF
Chain of Mitogen-activated protein kinase 1 (P28482 whole entry): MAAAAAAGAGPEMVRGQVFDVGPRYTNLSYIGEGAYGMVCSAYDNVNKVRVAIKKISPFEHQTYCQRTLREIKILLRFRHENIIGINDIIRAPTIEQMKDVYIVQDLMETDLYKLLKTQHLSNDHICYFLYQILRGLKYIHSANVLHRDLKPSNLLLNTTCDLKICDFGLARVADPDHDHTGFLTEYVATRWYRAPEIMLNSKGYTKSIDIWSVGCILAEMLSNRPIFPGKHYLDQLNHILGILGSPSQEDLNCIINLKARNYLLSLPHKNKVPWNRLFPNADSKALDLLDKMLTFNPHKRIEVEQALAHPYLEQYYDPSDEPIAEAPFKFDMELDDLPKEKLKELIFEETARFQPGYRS
Chain of Cyclin-dependent kinase 4 (P11802 whole entry): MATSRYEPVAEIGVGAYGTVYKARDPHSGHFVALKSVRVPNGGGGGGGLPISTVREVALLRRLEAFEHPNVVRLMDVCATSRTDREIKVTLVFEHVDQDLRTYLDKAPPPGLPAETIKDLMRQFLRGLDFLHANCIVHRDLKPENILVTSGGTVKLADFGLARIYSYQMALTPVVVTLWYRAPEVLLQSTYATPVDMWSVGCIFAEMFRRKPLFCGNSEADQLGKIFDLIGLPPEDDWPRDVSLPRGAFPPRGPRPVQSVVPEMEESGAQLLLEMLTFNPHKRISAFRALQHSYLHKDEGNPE

`COc1cc2c(cc1OC)-c1n[nH]c(Nc3cccc(C(=O)O)c3)c1C2` showed an IC50 in test [1] above 800 nM.
In the case of `COc1cc2c(cc1OC)-c1n[nH]c(Nc3cccc(Cl)c3)c1C2`, the IC50 in test [2] amounted to 24000 nM.
In [1], `COc1cc2c(cc1OC)-c1n[nH]c(Nc3ccc(Cl)cc3Cl)c1C2` had an IC50 of 5420 nM.
Still for that read-out and setting: then `COc1cc2c(cc1OC)-c1n[nH]c(Nc3cc(Cl)cc(Cl)c3)c1C2`, with 310 nM.
Still for that read-out and setting: the figure for `COc1cc2c(cc1OC)-c1n[nH]c(Nc3cc(Cl)ccc3Cl)c1C2` is 6220 nM.
For the compound `COc1cccc(Nc2[nH]nc3c2Cc2cc(OC)c(OC)cc2-3)c1`, the IC50 is above 100000 nM in [2]; 33 nM in test [3]; 4 nM in [4]; 355 nM in [5]; 4 nM in test [6]; 5 nM in [7]. Also, the IC50 amounted to 11 nM in [8] and 4 nM in test [9].
For `COc1cc2c(cc1OC)-c1n[nH]c(Nc3cccc(Br)c3)c1C2`, the IC50 in test [2] was above 100000 nM; in test [10] it was 18 nM; in [3], 37 nM; in test [1], 5 nM; in test [4] it was 6 nM; in test [5] it was 331 nM. Moreover, the IC50 in [6] was 6 nM; in test [7] it was 2 nM; in test [8] it was 1480 nM; in test [9], 6 nM.
Consider `COc1cccc2c1Cc1c-2n[nH]c1Nc1ccccc1`, for which the IC50 in test [2] was above 100000 nM; in test [10], 7340 nM; in test [3] it was 4700 nM; in test [4] it was 1190 nM; in test [5], above 10000 nM; in test [6] it was 798 nM. In addition, the IC50 in test [7] is 1700 nM; in test [8] it was 283 nM; in [9], 2800 nM.
`COc1cc2c(cc1OC)-c1n[nH]c(Nc3ccccc3)c1C2`: the IC50 in [2] stood at 21000 nM; in test [10] it was 108 nM; in test [3] it was 420 nM; in [1], 9 nM; in test [4] it was 62 nM; in [5], 2160 nM. For the same compound, the 50% inhibitory concentration (IC50) was determined as 124 nM in test [6], 600 nM in [7], 31 nM in test [8] and 353 nM in [9].
For the compound `COc1cc2c(cc1OC)-c1[nH]nc(-c3ccccc3)c1C2`, the IC50 is above 50000 nM in test [2]; 31200 nM in [10]; 4410 nM in [3]; 17 nM in test [1]; 8850 nM in test [4]; 6820 nM in [5]. For the same compound, the IC50 amounted to 2700 nM in [6], 1200 nM in test [7], 1390 nM in test [8] and 8400 nM in [9].
On to `COC(=O)c1cccc(Nc2[nH]nc3c2Cc2cc(OC)c(OC)cc2-3)c1`, for which the IC50 in test [1] was determined as 33 nM.
For `COc1cc2c(cc1OC)-c1n[nH]c(Nc3ccc(Cl)c(Cl)c3)c1C2`, 410 nM corresponded to half-maximal inhibition in test [1] (IC50).
As for `COc1cc2c(cc1OC)-c1n[nH]c(Nc3cccc(F)c3)c1C2`, the concentration for half-maximal inhibition (IC50) in test [11] was 45 nM; in [12], 45800 nM; in test [13], above 100000 nM; in test [2], 13000 nM; in test [14], above 100000 nM; in test [15], above 100000 nM. The IC50 in test [10] is 27 nM; in test [16] it was 378 nM; in [17], above 10000 nM; in test [3], 32 nM; in [1] it was 4.2 nM; in [18], above 100000 nM. The IC50 in [19] was above 100000 nM; in test [20], 56700 nM; in [21], 185 nM; in test [22] it was above 10000 nM; in test [4], 7 nM; in test [23] it was above 10000 nM. Besides, the IC50 is above 100000 nM in test [24]; 592 nM in test [5]; 17 nM in test [6]; 9 nM in [7]; 3100 nM in test [25]; 4870 nM in test [8]. The IC50 in test [26] was above 100000 nM; in test [27] it was 13000 nM; in test [9], 10 nM.
Regarding `COc1cc2c(cc1OC)-c1n[nH]c(Nc3cccc(C)c3)c1C2`, the IC50 is above 100000 nM in test [2]; 42 nM in test [3]; 15 nM in [4]; 4450 nM in test [5]; 19 nM in test [6]; 1 nM in [7]. Also, the IC50 was 8 nM in test [8] and 29 nM in test [9].
On to `COc1cc2c(cc1OC)-c1n[nH]c(Nc3cccc(C(F)(F)F)c3)c1C2`, for which the IC50 in [2] was above 100000 nM; in [10] it was 21 nM; in test [3] it was 440 nM; in test [1], 38 nM; in test [4], 35 nM; in [5], 290 nM. The IC50 came to 28 nM in [6], 255 nM in [7], 2500 nM in test [8] and 31 nM in test [9].
Take `COc1ccc2c(c1)-c1n[nH]c(Nc3ccccc3)c1C2`: the IC50 in test [2] was above 100000 nM; in [10], above 10000 nM; in test [3] it was above 10000 nM; in [4] it was above 50000 nM; in test [5] it was above 10000 nM; in test [7], 14400 nM.

A word on the IC50: it is the concentration that inhibits the measured activity by half. Lower therefore signals greater potency.
